Values quoted from earlier work as cited in patent publication US5385885A, “Inhibition of smooth muscle cell proliferation by antistasin and tick anticoagulant peptide” (priority 1991, dated 1995).

Tests used:
[1] = test system: smooth muscle cells of rat carotid arteries; settings: site-delivered; after balloon catheterization; Edelman et al.; cited from earlier work
[2] = test system: smooth muscle cell proliferative response to balloon catheter injury; settings: rat model; Powell et al.; cited from earlier work

Molecule | Proliferation of smooth muscle cells [1] | Smooth muscle cell proliferative response to balloon catheter injury [2]
heparin | effectively diminished | 
CCOC(=O)[C@H](CCc1ccccc1)N[C@H]1CCCN2CCC[C@@H](C(=O)O)N2C1=O [cilazapril] |  | specifically inhibits
